For one test, the system named is Staphylococcus aureus. The test is described as follows: Antibacterial activity against Staphylococcus aureus ATCC 29213. The format is functional.
Test [1] has as its system Escherichia coli. The test can be described thus: Antibacterial activity against efflux-deficient Escherichia coli 1260 expressing transducant lig251 gene encoding temperature sensitive ligA. The test is classed as functional.
Test [2] can be described thus: Inhibition of Escherichia coli NAD+-dependent DNA ligase.
The test system of test [3] is Escherichia coli. The test can be described thus: Antibacterial activity against wild-type TolC-positive Escherichia coli 1410 expressing ligA gene. The test is classed as functional.
The subject of test [4] is Escherichia coli. The test is described as follows: Antibacterial activity against TolC-positive Escherichia coli 1201 expressing lig251 gene. The format is functional.
The target of another test is DNA ligase 1 (Homo sapiens, UniProt P18858). The test can be described thus: Inhibition of human ATP-dependent DNA ligase 1.
DNA ligase 1, sequence (P18858 whole entry): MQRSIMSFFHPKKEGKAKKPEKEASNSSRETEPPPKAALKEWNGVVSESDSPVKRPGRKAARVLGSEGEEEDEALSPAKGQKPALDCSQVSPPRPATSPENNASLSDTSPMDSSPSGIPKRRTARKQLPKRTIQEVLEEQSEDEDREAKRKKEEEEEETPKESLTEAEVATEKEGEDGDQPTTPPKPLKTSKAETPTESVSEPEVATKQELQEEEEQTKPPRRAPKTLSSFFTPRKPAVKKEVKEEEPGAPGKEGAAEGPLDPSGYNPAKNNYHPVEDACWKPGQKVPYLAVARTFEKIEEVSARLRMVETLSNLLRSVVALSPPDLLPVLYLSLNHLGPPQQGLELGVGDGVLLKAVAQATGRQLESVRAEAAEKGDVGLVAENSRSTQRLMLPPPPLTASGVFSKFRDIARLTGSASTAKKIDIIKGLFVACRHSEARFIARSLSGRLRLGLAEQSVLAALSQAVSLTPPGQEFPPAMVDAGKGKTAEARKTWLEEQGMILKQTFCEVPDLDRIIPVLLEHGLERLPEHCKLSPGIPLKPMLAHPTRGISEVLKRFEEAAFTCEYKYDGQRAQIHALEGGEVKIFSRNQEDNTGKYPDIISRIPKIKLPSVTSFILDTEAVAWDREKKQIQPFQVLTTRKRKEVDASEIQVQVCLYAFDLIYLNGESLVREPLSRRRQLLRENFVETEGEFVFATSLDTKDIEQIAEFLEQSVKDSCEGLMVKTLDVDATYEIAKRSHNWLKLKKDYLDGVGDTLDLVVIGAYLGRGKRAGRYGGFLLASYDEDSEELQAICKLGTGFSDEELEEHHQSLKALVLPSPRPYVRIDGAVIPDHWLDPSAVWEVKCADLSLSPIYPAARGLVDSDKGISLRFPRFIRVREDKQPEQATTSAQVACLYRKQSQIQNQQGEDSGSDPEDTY
Another test concerns Streptococcus pneumoniae. The test is described as follows: Antibacterial activity against Streptococcus pneumoniae ATCC 10015. The test is classed as functional.
For another test, the system named is Haemophilus influenzae. The test can be described thus: Antibacterial activity against Haemophilus influenzae ATCC 51907. The format is functional.

Values after ≈ are worked out from the molar mass of the structure shown.

A word on the IC50: it is the point on the concentration scale where inhibition reaches its midpoint. Regarding `NC(=O)c1cnc(OC2CCCC2)nc1N`, the MIC in the test on Staphylococcus aureus was more than 100 µM; in the test with Escherichia coli [1] it was 9.4 µM (≈ 2.09 µg/mL); in the test with Escherichia coli [3], more than 100 µM; against Escherichia coli [4], 100 µM (≈ 22.2 µg/mL). The figures for the IC50 (in test [2]; on DNA ligase 1) were 610 nM and more than 55000 nM, respectively.
For `NC(=O)c1c(N)nc(OC2CCCC2)nc1OC1CCCCC1F` (stereo not drawn), the MIC is more than 100 µM in the test with Staphylococcus aureus, 1.2 µM (≈ 0.406 µg/mL) in the test on Escherichia coli [1], more than 100 µM in the test with Escherichia coli [3] and more than 100 µM in the test with Escherichia coli [4]. Further, the IC50 in test [2] is 19 nM; against DNA ligase 1, more than 55000 nM.
Turning to `NC(=O)c1c(N)nc(OC2CCCC2)nc1O[C@H]1CCCC[C@@H]1CO`, the MIC against Staphylococcus aureus is 100 µM (≈ 35 µg/mL); in the test on Escherichia coli [1] it was 1.2 µM (≈ 0.421 µg/mL); against Escherichia coli [3], more than 100 µM; against Escherichia coli [4] it was more than 100 µM. Also, the IC50 was 14 nM in test [2] and more than 55000 nM against DNA ligase 1.
In the case of `CC(Oc1ncc(C(N)=O)c(N)n1)C(=O)O` (stereo not drawn), the MIC in the test with Staphylococcus aureus, in the test with Escherichia coli [1], with Escherichia coli [3] and against Escherichia coli [4] was more than 100 µM throughout. The IC50 was more than 10000 nM in test [2] and more than 55000 nM at DNA ligase 1.
Regarding `COc1cc(NC[C@H]2CCCC(Oc3nc(OC4CCCC4)nc(N)c3C(N)=O)C2)cc(OC)c1` (stereo partly drawn), the MIC in the test with Staphylococcus aureus was more than 100 µM; in the test on Escherichia coli [1], 1.6 µM (≈ 0.777 µg/mL); with Escherichia coli [3], more than 100 µM; against Escherichia coli [4] it was more than 100 µM. The IC50 was 80 nM in test [2] and more than 55000 nM against DNA ligase 1.
Turning to `NC(=O)c1c(N)nc(OC2CCCC2)nc1O[C@H]1CCCC[C@@H]1O`, the MIC was 45 µM (≈ 15.1 µg/mL) in the test with Staphylococcus aureus, 1.6 µM (≈ 0.538 µg/mL) against Escherichia coli [1], more than 100 µM in the test with Escherichia coli [3] and more than 100 µM in the test on Escherichia coli [4]. In addition, the IC50 in test [2] is 46 nM; against DNA ligase 1, more than 55000 nM.
With `COCCNc1nc(OCC2CCCC2)ncc1C(N)=O`, the MIC against Staphylococcus aureus, with Escherichia coli [1], against Escherichia coli [3] and in the test with Escherichia coli [4] was more than 100 µM each time. In test [2], this molecule registered an IC50 of more than 55000 nM.
`NC(=O)c1cnc(CCC2CCCC2)nc1N`: the MIC in the test with Staphylococcus aureus, in the test on Escherichia coli [1], in the test on Escherichia coli [3] and with Escherichia coli [4] was more than 100 µM in each case. In addition, in test [2], the half-maximal inhibitory concentration (IC50) is more than 55000 nM.
Regarding `CC(C)Oc1nc(N)c(C(N)=O)c(OC2CCCCC2)n1`, the MIC against Staphylococcus aureus is more than 100 µM; against Escherichia coli [1], 6.3 µM (≈ 1.85 µg/mL); in the test on Escherichia coli [3], more than 100 µM; against Escherichia coli [4], more than 100 µM. In addition, the figures for the IC50 (in test [2]; against DNA ligase 1) were 61 nM and more than 55000 nM, respectively.
Regarding `NC(=O)c1c(N)nc(OC2CCCC2)nc1Oc1cccc(CCC(=O)O)c1`, the MIC in the test with Staphylococcus aureus is 83 µM (≈ 32.1 µg/mL); with Escherichia coli [1] it was 1.2 µM (≈ 0.464 µg/mL); with Escherichia coli [3], more than 100 µM; with Escherichia coli [4] it was more than 100 µM. The IC50 was 78 nM in test [2] and more than 55000 nM against DNA ligase 1.
Turning to `C[C@H]1CC[C@H](Oc2nc(N)c(C(N)=O)c(O[C@H]3CCC[C@@H]3O)n2)CC1`, the MIC is 100 µM (≈ 35 µg/mL) against Staphylococcus aureus; 75 µM (≈ 26.3 µg/mL) against Streptococcus pneumoniae; 1.2 µM (≈ 0.421 µg/mL) in the test with Escherichia coli [1]; 12.5 µM (≈ 4.38 µg/mL) with Haemophilus influenzae; more than 100 µM in the test with Escherichia coli [3]; more than 100 µM against Escherichia coli [4]. The values for the IC50 (in test [2]; against DNA ligase 1) were 180 nM and more than 55000 nM, respectively.
As for `NC(=O)c1cnc(SC2CCCC2)nc1N`, the MIC against Staphylococcus aureus is more than 100 µM; in the test with Escherichia coli [1] it was 33 µM (≈ 7.86 µg/mL); against Escherichia coli [3], more than 100 µM; in the test on Escherichia coli [4], more than 100 µM. Besides, the IC50 in test [2] came to 6900 nM.
Consider `NC(=O)c1c(N)nc(OC2CCCC2)nc1Oc1ccccc1F`, for which the MIC was more than 100 µM against Staphylococcus aureus, 9.4 µM (≈ 3.12 µg/mL) in the test with Escherichia coli [1], more than 100 µM against Escherichia coli [3] and more than 100 µM against Escherichia coli [4]. For the same molecule, the IC50 was 64 nM in test [2] and more than 55000 nM on DNA ligase 1.
On to `NC(=O)c1c(N)nc(OC2CCCC2)nc1O[C@H]1CCC[C@H]1O`, for which the MIC is more than 100 µM in the test with Staphylococcus aureus, 9.4 µM (≈ 3.03 µg/mL) against Escherichia coli [1], more than 100 µM in the test on Escherichia coli [3] and more than 100 µM against Escherichia coli [4]. Further, the IC50 in test [2] is 120 nM; on DNA ligase 1, more than 55000 nM.
For `Nc1nc(OC2CCCC2)ncc1S(N)(=O)=O`, the MIC in the test with Staphylococcus aureus, against Escherichia coli [1], in the test with Escherichia coli [3] and against Escherichia coli [4] was more than 100 µM each time. The same molecule gave an IC50 in test [2] of more than 40000 nM.
For `NC(=O)c1cnc(NC2CCCC2)nc1N`, the MIC in the test on Staphylococcus aureus, against Escherichia coli [1], in the test with Escherichia coli [3] and in the test with Escherichia coli [4] was more than 100 µM in each case. This molecule yielded a half-inhibitory concentration (IC50) in test [2] of more than 55000 nM.
With `CNc1nc(OCC2CCCC2)ncc1C(N)=O`, the MIC against Staphylococcus aureus, in the test with Escherichia coli [1], against Escherichia coli [3] and with Escherichia coli [4] was more than 100 µM each time. The IC50 in test [2] was more than 55000 nM.
With `NC(=O)c1cnc(OCCF)nc1N`, the MIC in the test on Staphylococcus aureus is more than 100 µM; against Escherichia coli [1] it was 28 µM (≈ 5.6 µg/mL); against Escherichia coli [3], more than 100 µM; in the test on Escherichia coli [4], 23 µM (≈ 4.6 µg/mL). For the same molecule, the IC50 was 920 nM in test [2] and more than 55000 nM on DNA ligase 1.
On to `C[C@H]1CCCC[C@H]1Oc1ncc(C(N)=O)c(N)n1`, for which the MIC with Staphylococcus aureus is more than 100 µM; against Escherichia coli [1] it was 3.1 µM (≈ 0.776 µg/mL); with Escherichia coli [3], more than 100 µM; in the test with Escherichia coli [4] it was more than 100 µM. The IC50 in test [2] was 240 nM; on DNA ligase 1, more than 55000 nM.
For `CC(C)Oc1ncc(C(N)=O)c(N)n1`, the MIC against Staphylococcus aureus is more than 100 µM; with Escherichia coli [1], 15 µM (≈ 2.94 µg/mL); against Escherichia coli [3] it was more than 100 µM; with Escherichia coli [4], 27 µM (≈ 5.3 µg/mL). In addition, the IC50 is 410 nM in test [2] and more than 55000 nM at DNA ligase 1.
In the case of `N=C(N)c1cnc(OC2CCCC2)nc1N`, the MIC in the test on Staphylococcus aureus was more than 100 µM; with Escherichia coli [1] it was 100 µM (≈ 22.1 µg/mL); in the test with Escherichia coli [3], more than 100 µM; against Escherichia coli [4] it was more than 100 µM. In test [2], this molecule yielded an IC50 of 8100 nM.
Take `CC(C)Oc1nc(N)c(C(N)=O)c(O[C@H]2CCC[C@@H]2O)n1`: the MIC is more than 100 µM against Staphylococcus aureus, 4.7 µM (≈ 1.39 µg/mL) against Escherichia coli [1], more than 100 µM with Escherichia coli [3] and more than 100 µM against Escherichia coli [4]. Further, the IC50 in test [2] was 630 nM; on DNA ligase 1, more than 55000 nM.
Regarding `Nc1nc(OCC2CCCC2)ncc1C(=O)NCCCN1CCCC1=O`, the MIC against Staphylococcus aureus, in the test with Escherichia coli [1], with Escherichia coli [3] and with Escherichia coli [4] was more than 100 µM throughout. The same molecule registered an IC50 in test [2] of more than 55000 nM.
As for `Nc1nc(OCC2CCCC2)ncc1C(=O)NCC1CCCO1` (stereo not drawn), the MIC against Staphylococcus aureus, in the test with Escherichia coli [1], against Escherichia coli [3] and against Escherichia coli [4] was more than 100 µM in each case. For the same molecule, the IC50 in test [2] is more than 55000 nM.
For the molecule `NC(=O)c1cnc(OC2CCCCC2)nc1N`, the MIC was more than 100 µM in the test with Staphylococcus aureus, 9.8 µM (≈ 2.32 µg/mL) with Escherichia coli [1], more than 100 µM against Escherichia coli [3] and more than 100 µM with Escherichia coli [4]. The IC50 was 560 nM in test [2] and more than 55000 nM against DNA ligase 1.
